# ChEMBL document CHEMBL1201862, “PubChem BioAssay data set” (2004)
# Where “and” joins values, the source holds several entries; their conditions need not be identical. Identical values can stand only once. Calls of active or inactive are those of the source.
# System: Streptococcus sp. 'group A'
# Test: growth inhibition of control SK(-) GAS strain, dose response, counter-screen for streptokinase expression inhibitor project, luminescence, kanamycin, BacTiterGlo, confirmation (AID 1900)
# Assay type: functional, organism-based
# Conditions: not given
row,SMILES,EC50
1,O=C(NC(=S)N(CCCCO)C1CCCCC1)c1sc2ccccc2c1Cl,0.891 µM (active)
2,CCOc1ccc(-c2cc(C(=O)OC)nc3c2c(=O)n(C)c(=O)n3C)cc1,0.063 µM (active)
3,FC(F)(F)c1cccc(NC(S)=NN=C(S)Nc2ccc(Cl)cc2)c1,3.28 µM (active)

# Target: T1, Heat shock factor protein 1 (Mus musculus, UniProt P38532)
# T1 sequence (P38532 whole entry): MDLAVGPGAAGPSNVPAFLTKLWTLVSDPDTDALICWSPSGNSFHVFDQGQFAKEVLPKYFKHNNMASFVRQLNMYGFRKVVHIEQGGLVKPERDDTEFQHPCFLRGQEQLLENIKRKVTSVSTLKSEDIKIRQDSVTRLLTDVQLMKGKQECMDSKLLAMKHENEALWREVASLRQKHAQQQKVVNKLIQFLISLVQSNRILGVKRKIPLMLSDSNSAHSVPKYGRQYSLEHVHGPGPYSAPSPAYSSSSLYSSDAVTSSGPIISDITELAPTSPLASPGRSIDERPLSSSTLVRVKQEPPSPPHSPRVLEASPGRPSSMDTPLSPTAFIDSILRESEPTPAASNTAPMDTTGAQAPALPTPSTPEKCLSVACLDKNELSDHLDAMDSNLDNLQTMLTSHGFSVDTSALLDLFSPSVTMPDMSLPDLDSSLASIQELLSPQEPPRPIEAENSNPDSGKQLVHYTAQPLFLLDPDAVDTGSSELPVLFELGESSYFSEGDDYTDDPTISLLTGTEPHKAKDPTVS
# Test: inhibition of MG132-induced HSE-luciferase signal, confirmation, cell-based, NIH3T3, luminescence, dose retest (AID 2382);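 further: NIH3T3 fibroblasts with HSF1-driven luciferase reporter stressed by proteasome inhibitor MG132; luminescence from HSF1-driven luciferase expression after 8 hours of MG132 stress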
# Assay type: functional
# Conditions: not given
row,SMILES,EC50
1,CCN(c1ccccc1)S(=O)(=O)c1ccc(Cl)c(C(=O)N(CC2CCCO2)C2CCS(=O)(=O)C2)c1 (configuration not stated),> 195 µM (not active)
2,O=C(CS(=O)(=O)Cc1ccccc1)NCC1CCCO1 (configuration not stated),> 195 µM (not active)
3,CCC(C)c1ccc(NC(=O)C2CC2)cc1 (configuration not stated),> 195 µM (not active)
4,Cc1cc(C)c2nc(O)c(C(c3nnnn3CC3CCCO3)N3CCC(C)CC3)cc2c1 (configuration not stated),> 195 µM (not active)
5,CC(C)(C)OC(=O)N[C@@H](Cc1ccccc1)C(=O)NC[C@H]1CC[C@H](C(=O)N[C@@H](CC(=O)O)C(=O)O)CC1,> 195 µM (not active)

# Further lines, results first:
row,EC50,SMILES
1,> 195 µM (not active),Cc1ccc(OCC(O)CN2C(=O)NC(C)(C)C2=O)cc1C (configuration not stated)
2,> 195 µM (not active),COc1ccc(-n2c(-c3ccc(F)cc3)cnc2SCC(=O)NCc2ccco2)cc1
3,> 195 µM (not active),Cc1ccc(/C=C/C(=O)Nc2ccc(O)c3c(=O)cc(-c4ccccc4Cl)oc23)cc1
4,> 195 µM (not active),CCCCN(C(=O)COc1ccc(C)cc1OC)c1c(N)n(CCC)c(=O)[nH]c1=O
5,> 195 µM (not active),CN(CC(=O)NCc1cccnc1)S(=O)(=O)c1ccc2c(c1)c(=O)n(C)c(=O)n2C
6,> 195 µM (not active),Cc1ccccc1OCC(=O)OCC(=O)c1ccc(-c2ccccc2)cc1
7,> 195 µM (not active),CC1(C)Cc2nc3[nH]c(=S)n(-c4ccccc4)c(=O)c3cc2CO1
8,> 195 µM (not active),COc1cccc(C(=O)CC(=O)C(=O)Nc2cc(OC)c(OC)c(OC)c2)c1
9,> 195 µM (not active),C=CCN1C(=O)C(Cc2ccc(OC)cc2)S/C1=N/N=C/c1ccco1 (configuration not stated)
10,> 195 µM (not active),Cc1nn2c(=O)c(Cl)c(C)[nH]c2c1-c1ccccc1

# System: not listed separately
# Test: inhibitors of intracellular T. cruzi replication, confirmation, NIH3T3 host cells, beta-gal luminescence (AID 2044);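 further: intracellular parasites grown in NIH/3T3 mouse fibroblasts as host cells; luminescent beta-galactosidase reporter signal from transgenic T. cruzi replicating inside host cells; inhibitors lower the luminescence signal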
# Assay type: functional, cell-based
# Conditions: not given
row,SMILES,EC50
1,CC(C)C(=O)N1CCN(c2cc(N3CCN(C)CC3)c(F)cc2[N+](=O)[O-])CC1,0.625 µM (active)
2,CC(C)c1ccc(NC(=O)c2cc3c(=O)n(C)c4ccccc4c3n2C)cc1,1.12 µM (active)
3,COc1ccc(CCNCC(O)COc2cccc(C(C)=O)c2)cc1OC (configuration not stated),0.225 µM (active)
4,O=C(Cn1cnc2cc([N+](=O)[O-])ccc2c1=O)NC(=O)NCc1ccccc1,0.223 µM (active)
5,COc1ccc(CCNC(=O)c2cc3c(=O)n4ccccc4nc3n(C3CCCCC3)c2=N)cc1,2.17 µM (active)
6,COc1ccc(C(=O)Nc2ccc(S(=O)(=O)N3CCCC3)cc2)c(OC)c1,11.1 µM (active)
7,Cc1ccc(N(Cc2ccco2)C(=O)c2ccc(N3CCCCC3)c([N+](=O)[O-])c2)cc1,1.27 µM (active)
8,O=[N+]([O-])c1nn(-c2ccccc2)[n+]([O-])c1N1CCN(c2ccccc2)CC1,0.483 µM (active)
9,Nc1ccccc1Nc1cc(-c2ccccc2)nn1-c1ccccc1,7.72 µM (active)
10,Clc1ccc(SCCN2CCNCC2)cc1,0.511 µM (active)
11,O=c1c2ccccc2ncn1-c1ccc([N+](=O)[O-])cc1[N+](=O)[O-],0.524 µM (active)
12,C/C(=N\Nc1nc2ccccc2[nH]1)c1ccc2c(c1)OCCO2,1.89 µM (active)
13,N=C(N)N/N=C/c1cccc(Cl)c1Cl,0.435 µM (active)
14,CCOC(=O)c1cc2c(=O)n3ccccc3nc2n(C(C)C)/c1=N/C(=O)c1c(-c2ccccc2Cl)noc1C,2.4 µM (active)
15,Cc1c2c(n3c(nc4ccccc43)c1C#N)N(CCN(C)C)CC2,0.117 µM (active)

# System: not listed separately
# Test: cytotoxicity toward NIH3T3 fibroblasts, dose response, counter-screen, cell-based, ATP luminescence, mouse fibroblasts (AID 2010);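 further: cells exposed to compound for about 90 hours before reading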
# Assay type: functional
# Conditions: not given
row,SMILES,EC50
1,CC(C)C(=O)N1CCN(c2cc(N3CCN(C)CC3)c(F)cc2[N+](=O)[O-])CC1,> 60 µM (not active)
2,CC(C)c1ccc(NC(=O)c2cc3c(=O)n(C)c4ccccc4c3n2C)cc1,16.2 µM (active)
3,COc1ccc(CCNCC(O)COc2cccc(C(C)=O)c2)cc1OC (configuration not stated),> 60 µM (not active)
4,O=C(Cn1cnc2cc([N+](=O)[O-])ccc2c1=O)NC(=O)NCc1ccccc1,> 60 µM (not active)
5,COc1ccc(CCNC(=O)c2cc3c(=O)n4ccccc4nc3n(C3CCCCC3)c2=N)cc1,> 60 µM (not active)
6,COc1ccc(C(=O)Nc2ccc(S(=O)(=O)N3CCCC3)cc2)c(OC)c1,> 60 µM (not active)
7,Cc1ccc(N(Cc2ccco2)C(=O)c2ccc(N3CCCCC3)c([N+](=O)[O-])c2)cc1,> 60 µM (not active)
8,O=[N+]([O-])c1nn(-c2ccccc2)[n+]([O-])c1N1CCN(c2ccccc2)CC1,> 60 µM (not active)
9,Nc1ccccc1Nc1cc(-c2ccccc2)nn1-c1ccccc1,> 60 µM (inconclusive)
10,Clc1ccc(SCCN2CCNCC2)cc1,9.8 µM (active)
11,O=c1c2ccccc2ncn1-c1ccc([N+](=O)[O-])cc1[N+](=O)[O-],> 60 µM (not active)
12,C/C(=N\Nc1nc2ccccc2[nH]1)c1ccc2c(c1)OCCO2,> 60 µM (not active)
13,N=C(N)N/N=C/c1cccc(Cl)c1Cl,> 60 µM (not active)
14,CCOC(=O)c1cc2c(=O)n3ccccc3nc2n(C(C)C)/c1=N/C(=O)c1c(-c2ccccc2Cl)noc1C,> 30 µM (not active)
15,Cc1c2c(n3c(nc4ccccc43)c1C#N)N(CCN(C)C)CC2,20.6 µM (active)

# System: Streptococcus
# Test: Group A Streptococcus viability loss, dose response, counter-screen for streptokinase expression inhibitor project, luminescence, BacTiterGlo (AID 1915);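 further: potency for reduction of bacterial viability or growth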
# Assay type: functional, organism-based
# Conditions: not given
row,SMILES,EC50
1,O=C(NC(=S)N(CCCCO)C1CCCCC1)c1sc2ccccc2c1Cl,7.75 µM (active)
2,CCOc1ccc(-c2cc(C(=O)OC)nc3c2c(=O)n(C)c(=O)n3C)cc1,4.33 µM (active)
3,FC(F)(F)c1cccc(NC(S)=NN=C(S)Nc2ccc(Cl)cc2)c1,5.47 µM (active)

# Target: Cytochrome P450 2C19 (Homo sapiens, UniProt P33261)
# Test: Cytochrome panel assay with activity outcomes. Panel member name: p450-cyp2c19 Compounds with AC50 equal or less than 10 uM are considered active
# Assay type: functional
# Conditions: not given
# Cytochrome P450 2C19, sequence (P33261 whole entry): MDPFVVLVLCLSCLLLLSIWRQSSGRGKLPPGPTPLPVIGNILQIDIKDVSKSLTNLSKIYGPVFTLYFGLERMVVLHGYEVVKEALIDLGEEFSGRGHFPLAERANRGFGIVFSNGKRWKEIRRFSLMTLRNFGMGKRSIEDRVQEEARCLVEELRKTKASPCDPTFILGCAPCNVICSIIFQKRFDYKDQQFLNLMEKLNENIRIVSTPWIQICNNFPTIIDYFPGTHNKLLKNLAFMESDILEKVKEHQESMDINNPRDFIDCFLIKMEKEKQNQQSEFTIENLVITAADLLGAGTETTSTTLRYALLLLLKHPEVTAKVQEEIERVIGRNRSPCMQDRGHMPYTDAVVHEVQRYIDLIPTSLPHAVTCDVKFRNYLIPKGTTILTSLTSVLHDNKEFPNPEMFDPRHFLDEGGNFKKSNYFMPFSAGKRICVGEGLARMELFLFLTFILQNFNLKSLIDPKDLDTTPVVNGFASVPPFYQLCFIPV
row,AC50,SMILES
1,inconclusive,CN1C(=O)CC(NNC(=O)c2ccccc2)C1=O (configuration not stated)
2,inconclusive,Cc1noc(C)c1-c1cncnc1N1CCN(C)CC1

# Same assay, conditions: read-out: AC50
row,AC50,SMILES
1,39.8 µM (inconclusive),CCOC(=O)N1CCC(NC(=O)CS(=O)(=O)Cc2nc(-c3cccc(OC)c3)oc2C)CC1
2,1.78 µM (inconclusive),Cc1c(Cl)c([N+](=O)[O-])nn1CC(=O)Nc1c(C)n(C)n(-c2ccccc2)c1=O
3,6.31 µM (inconclusive),O=[N+]([O-])c1cccc(/C=N\Nc2ccc3ccccc3n2)c1O
4,2.82 µM (inconclusive),Cc1c(C(=O)Nc2nccs2)sc2nc(-c3cccs3)cc(C(F)(F)F)c12
5,3.16 µM (inconclusive),C=CC[C@@H]1C=C[C@H](O/N=C2\c3cc(OC)ccc3O[C@H](c3cccc(OC)c3)[C@H]2O)[C@H](CO)O1
6,35.5 µM (inconclusive),O=C1N=C(N2CCOCC2)S/C1=C\C=C/c1ccccc1
7,15.8 µM (inconclusive),O=C(c1cnccn1)N1CCC2(CC1)CN(Cc1ccccc1)C2
8,25.1 µM (inconclusive),CN(C)c1cc2c(Nc3ccc4c(cnn4Cc4ccccc4)c3)ncnc2cn1 [GW282974X]

# Target: Cytochrome P450 2D6 (Homo sapiens, UniProt P10635);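 further: CYP2D6 member of a cytochrome P450 panel assay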
# Conditions: not given
# Cytochrome P450 2D6, sequence (P10635 whole entry): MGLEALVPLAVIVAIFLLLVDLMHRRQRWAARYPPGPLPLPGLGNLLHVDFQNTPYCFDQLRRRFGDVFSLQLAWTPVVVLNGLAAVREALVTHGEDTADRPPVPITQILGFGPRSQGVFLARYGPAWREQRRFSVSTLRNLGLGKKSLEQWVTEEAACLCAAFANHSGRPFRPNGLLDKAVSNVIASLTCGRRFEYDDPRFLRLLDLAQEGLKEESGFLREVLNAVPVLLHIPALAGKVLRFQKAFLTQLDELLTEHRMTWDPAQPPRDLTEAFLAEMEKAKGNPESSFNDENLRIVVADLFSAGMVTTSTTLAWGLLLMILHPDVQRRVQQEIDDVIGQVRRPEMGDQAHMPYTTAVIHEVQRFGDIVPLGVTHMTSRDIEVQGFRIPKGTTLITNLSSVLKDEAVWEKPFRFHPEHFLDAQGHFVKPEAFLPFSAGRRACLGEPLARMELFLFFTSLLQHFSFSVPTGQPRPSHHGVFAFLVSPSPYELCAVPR
row,SMILES,AC50
1,O=C(NC(=S)N(CCCCO)C1CCCCC1)c1sc2ccccc2c1Cl,22.4 µM (inconclusive)
2,C[N+]12CCC(CC1)[C@@H](OC(=O)C(O)(c1ccccc1)c1ccccc1)C2,12.6 µM (inconclusive)
3,Cc1cccc(C)c1OC[C@H](C)N [(S)-MEXILETINE],7.94 µM (inconclusive) and 39.8 µM (inconclusive)

# More lines, now with the values ahead:
row,AC50,SMILES
1,39.8 µM (inconclusive),Cc1noc(C)c1-c1cncnc1N1CCN(C)CC1
2,3.98 µM (inconclusive),Cc1c(C(=O)Nc2nccs2)sc2nc(-c3cccs3)cc(C(F)(F)F)c12
3,5.01 µM (inconclusive),C=CC[C@@H]1C=C[C@H](O/N=C2\c3cc(OC)ccc3O[C@H](c3cccc(OC)c3)[C@H]2O)[C@H](CO)O1
4,31.6 µM (inconclusive),COc1cccc(-c2ccc3ncnc(NCc4cnc(C)cn4)c3c2)c1
5,15.8 µM (inconclusive),Cc1cc(N2CCOCC2)nc(SCc2ccc(Cl)cc2Cl)n1
6,28.2 µM (inconclusive),CCC(C(=O)NC(C)(C)C)N(C(=O)Cn1nnc(-c2cccs2)n1)c1cnc2ccccc2c1 (configuration not stated)
7,0.891 µM (inconclusive),Cc1nn(-c2ccccc2)c2c1C(=O)N(Cc1ccccc1)C(=O)C(C)(C)C2
8,31.6 µM (inconclusive),CN(C)c1cc2c(Nc3ccc4c(cnn4Cc4ccccc4)c3)ncnc2cn1 [GW282974X]

# Target: T2, Cytochrome P450 1A2 (Homo sapiens, UniProt P05177);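 further: PubChem cytochrome P450 panel assay, CYP1A2 panel member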
# T2 sequence (P05177 whole entry): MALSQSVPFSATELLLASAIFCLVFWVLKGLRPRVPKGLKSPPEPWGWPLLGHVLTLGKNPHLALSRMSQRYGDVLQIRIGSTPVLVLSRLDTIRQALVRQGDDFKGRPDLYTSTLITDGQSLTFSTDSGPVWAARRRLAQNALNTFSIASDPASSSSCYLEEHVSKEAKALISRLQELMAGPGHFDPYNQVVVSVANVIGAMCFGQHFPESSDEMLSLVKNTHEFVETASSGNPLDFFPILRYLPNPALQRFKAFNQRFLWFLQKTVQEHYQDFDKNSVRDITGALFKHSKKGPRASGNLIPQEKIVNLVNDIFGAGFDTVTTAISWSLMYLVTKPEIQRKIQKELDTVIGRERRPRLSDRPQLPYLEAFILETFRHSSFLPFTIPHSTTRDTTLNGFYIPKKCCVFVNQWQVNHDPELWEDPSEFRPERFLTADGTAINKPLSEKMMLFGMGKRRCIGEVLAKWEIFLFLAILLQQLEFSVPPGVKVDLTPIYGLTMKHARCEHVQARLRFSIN
# Conditions: not given
row,AC50,SMILES
1,14.1 µM (inconclusive),Cn1c(OCc2ccc3c(c2)OCO3)nc2c1c(=O)n(Cc1ccc(Cl)c(Cl)c1)c(=O)n2C

# Target: Cytochrome P450 2C9 (Homo sapiens, UniProt P11712)
# Conditions: not given
# Cytochrome P450 2C9, sequence (P11712 whole entry): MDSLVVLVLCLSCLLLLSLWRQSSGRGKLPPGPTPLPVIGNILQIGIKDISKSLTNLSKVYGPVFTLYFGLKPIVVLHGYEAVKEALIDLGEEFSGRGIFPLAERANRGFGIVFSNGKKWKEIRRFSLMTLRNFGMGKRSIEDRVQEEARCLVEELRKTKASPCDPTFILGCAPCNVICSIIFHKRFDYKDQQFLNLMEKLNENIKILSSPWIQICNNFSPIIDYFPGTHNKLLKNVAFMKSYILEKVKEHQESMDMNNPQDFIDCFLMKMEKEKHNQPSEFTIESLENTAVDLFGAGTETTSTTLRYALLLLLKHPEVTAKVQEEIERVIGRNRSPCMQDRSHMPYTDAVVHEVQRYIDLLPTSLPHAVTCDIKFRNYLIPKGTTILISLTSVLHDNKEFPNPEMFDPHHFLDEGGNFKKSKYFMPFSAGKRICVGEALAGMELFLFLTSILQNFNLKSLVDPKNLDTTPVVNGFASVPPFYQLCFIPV
row,SMILES,AC50
1,CC(=O)N1CCC2(CC1)CCN(c1ccc(-c3ccccc3)cc1)CC2,25.1 µM (inconclusive)
2,CC1CC(OCC(O)CN2CCN(Cc3ccccc3)CC2)CC(C)(C)C1 (configuration not stated),0.0251 µM (inconclusive)

# Other lines, results leading:
row,AC50,SMILES
1,22.4 µM (inconclusive),Cc1ccnc(NCn2nnc3ccccc32)c1
2,14.1 µM (inconclusive),Cc1c(Cl)c([N+](=O)[O-])nn1CC(=O)Nc1c(C)n(C)n(-c2ccccc2)c1=O
3,1 µM (inconclusive),O=[N+]([O-])c1cccc(/C=N\Nc2ccc3ccccc3n2)c1O
4,8.91 µM (inconclusive),COC(=O)c1ccccc1NC(=O)C1CCN(C(=O)c2ccc(OC)cc2)CC1
5,0.0158 µM (inconclusive),COc1ccccc1CNc1ccnc(-c2ccccc2C(F)(F)F)n1
6,20 µM (inconclusive),Cc1cc(C(F)(F)F)n2nc(-c3cnn(C)c3C(F)(F)F)c(Cl)c2n1
7,0.126 µM (inconclusive),COC(=O)c1cc(NC(=O)/C=C/c2ccc3c(c2)OCO3)cc(C(=O)OC)c1
8,31.6 µM (inconclusive),O=C(c1cnccn1)N1CCC2(CC1)CN(Cc1ccccc1)C2
9,3.16 µM (inconclusive),Cc1ccc(C)c(NC(=O)C2C3CCCC2C3c2ccccc2)c1 (configuration not stated)
10,20 µM (inconclusive),CSc1nc(C)c(CCOC(=O)c2ccccc2)c(O)n1
11,0.112 µM (inconclusive),CCCNC(=O)c1c(C)cc(=O)oc1C
12,20 µM (inconclusive),Cc1cc(C)cc(NC(=O)N2CCCC2C(=O)Nc2ccc(-n3cnnn3)c(C)c2)c1 (configuration not stated)
